From patent US20250002450A1, “CATIONIC STEROID COMPOUNDS, METHOD OF OBTAINING THEREOF, FORMULATIONS COMPRISING THEREOF AND THEIR USES” (UNIVERSIDADE DO PORTO, priority 2021, published 2025)
In brackets after ≈: the same amount, converted by molar mass.

Tests used:
Assay in all cases: Antibacterial MIC/MBC (broth microdilution)
[1] = system: Streptococcuss pyogenes ATCC 19615; format: cell-based, Streptococcus pyogenes
Description: (§1) Twelve reference bacterial strains and nine MDR clinically relevant bacterial strains were used in this study. Gram-negative bacteria comprised reference strains E. coli ATCC 25922, K. pneumoniae ATCC 13883, Salmonella enterica serovar Typhimurium CECT 443, P. aeruginosa ATCC 27853, A. baumannii ATCC 19606, C. jejuni ATCC 33560 (ATCC—American Type Culture Collection; CECT—Colección Espanola de Cultivos Tipo); clinical isolates E. coli SA/2, an extended-spectrum β-lactamase (ESBL)-producing strain and P. aeruginosa 33b, a pan-drug-resistant isolate; and animal isolates C. jejuni P5/4, a ciprofloxacin-resistant strain, C. jejuni 4432, C. jejuni 4433, C. jejuni 4448, and E. coli 2252, a COL-resistant strain [42]. Gram-positive strains included S. aureus ATCC 29213, E. faecalis ATCC 29212, S. pyogenes ATCC 19615, and environmental isolates methicillin-resistant S. aureus (MRSA) 66/1 [43], and VAN-resistant enterococci (VRE) E. faecalis B3/101 [44]. Gram-negative fish pathogens Yersinia ruckeri ATCC 29473, Listonella anguillarum ATCC 1924, and Tenacibaculum maritimum ATCC 43397 were also included.
(§2) Strains were kept in Trypto-Casein Soy agar (TSA—Biokar Diagnostics, Allone, Beauvais, France) slants and, before each assay, were sub-cultured in Mueller-Hinton agar (MHA—Biokar Diagnostics, Allone, Beauvais, France). Y. ruckeri ATCC 29473 and L. anguillarum ATCC 1924 were kept in Nutrient Agar (Condalab, Madrid, Spain) and T. maritimum ATCC 43397 was kept in TMM agar (Condalab, Madrid, Spain), and were sub-cultured in the respective culture media before each assay. For S. pyogenes ATCC 19615, CAMHB was supplemented with 3.75% lysed horse blood (LBH—Oxoid, Basingstoke, England), whereas for C. jejuni it was supplemented with 2.5% LHB. Colony-forming unit counts of the inoculum were conducted to determine the initial inoculum size (which should be approximately 5×10^5 CFU/mL). Sterility and growth controls were included in each assay. The 96-well U-shaped untreated polystyrene microtiter plates were incubated for 20 h at 37 degrees C. (42 degrees C. for C. jejuni, in a microaerophilic atmosphere) and the minimal inhibitory concentration (MIC) was determined as the lowest concentration of compound that prevented visible growth. The minimal bactericidal concentration (MBC) was determined by spreading 100 μL of the content of the wells with no visible growth on MH plates. The MBC was determined as the lowest concentration of compound that killed 99.9% of the initial inoculum after overnight incubation at 37 degrees C. Two independent assays were performed for reference and MDR strains.
(§3) An initial screening of the antibacterial activity of the compounds was performed by the Kirby-Bauer disk diffusion method, as recommended by the Clinical and Laboratory Standards Institute (CLSI). Briefly, sterile 6 mm blank paper disks (Oxoid, Basingstoke, England) impregnated with 15 μg of each compound were placed on inoculated MH agar plates. A blank disk with dimethylsulfoxide (DMSO) was used as a negative control. MH inoculated plates were incubated for 18-20 h at 37 degrees C. At the end of incubation, the inhibition halos where measured. The MIC was used to determine the antibacterial activity of each compound, in accordance with the recommendations of the CLSI. Two-fold serial dilutions of the compounds were prepared in Mueller-Hinton Broth 2 (MHB2—Sigma-Aldrich, St. Louis, MO, USA) within the concentration range of 0.062-64 μg/mL. CTX ranging between 0.031-16 μg/mL was used as a control. Sterility and growth controls were included in each assay. Purity checks and colony counts of the inoculum suspensions were also performed in order to ensure that the final inoculum density closely approximates the intended number (5×10^5 CFU/mL). The MIC was determined as the lowest concentration of compound that inhibited growth of the bacteria. The MBC was assessed by spreading 10 μL of culture collected from wells showing no visible growth on MH agar plates. […]

S. aureus 66/1 (MRSA) = format: cell-based, Staphylococcus aureus; details: Staphylococcus aureus
Description: as §1, §2, §3

[2] = system: Enterococcuss faecalis ATCC 29212; format: cell-based, Enterococcus faecalis
Description: as §1, §2, §3

E. faecalis B3/101 (VRE) = format: cell-based, Enterococcus faecalis; details: Enterococcus faecalis, E. faecalis B3/101 (VRE)
Description: as §1, §2, §3

[3] = system: Acinetobacter baumannii ATCC 19606; format: cell-based; details: ATCC19606, Acinetobacter baumannii ATCC 19606
Description: as §1, §2, §3

[4] = system: Staphylococcus aureus ATCC 29213; format: cell-based
Description: as §1, §2, §3

[5] = system: Escherichia coli ATCC 25922; format: cell-based; details: ATCC25922, Escherichia coli ATCC 25922
Description: as §1, §2, §3

[6] = system: Klebsiella pneumoniae ATCC 13883; format: cell-based; details: ATCC13883, Klebsiella pneumoniae ATCC 13883
Description: as §1, §2, §3

[7] = system: Salmonella enterica serovar Typhimurium CECT 443; format: cell-based
Description: as §1, §2, §3

[8] = system: Listonella anguilarum ATCC 1924; format: cell-based; details: Listonella anguilarum ATCC 1924
Description: as §1, §2, §3

[9] = system: Pseudomonas aeruginosa ATCC 27853; format: cell-based; details: ATCC27853, Pseudomonas aeruginosa ATCC 27853
Description: as §1, §2, §3

[10] = system: Yersinia ruckeri ATCC 29473; format: cell-based
Description: as §1, §2, §3

C. jejuni 4433 = format: cell-based, Campylobacter jejuni
Description: as §1, §2, §3

C. jejuni 4432 = format: cell-based, Campylobacter jejuni
Description: as §1, §2, §3

C. jejuni 4448 = format: cell-based, Campylobacter jejuni
Description: as §1, §2, §3

C. jejuni P5/4 = format: cell-based, Campylobacter jejuni; details: Campylobacter jejuni
Description: as §1, §2, §3

[11] = Campylobacter jejuni, read-out: MBC
[12] = Campylobacter jejuni, read-out: MIC

Q: Which “antibacterial activity (in words)” value ([1]; S. pyogenes ATCC 19615) does the source give for `C[C@H](CCC(=O)N1CCCCC1)[C@H]1CC[C@H]2[C@@H]3CC[C@@H]4C[C@H](O)CC[C@]4(C)[C@H]3C[C@H](O)[C@]12C` [Compound 2, (R)-4-((3R,5R,8R,9S,10S,12S,13R,14S,17R)-3,12-dihydroxy-10,13-dimethylhexadecahydro-1H-cyclopenta[a]phenanthren-17-yl)-1-(piperidin-1-yl) pentan-1-one] here?
A: active

Q: And the MBC ([1]; Streptococcus pyogenes, ATCC19615, Streptococcuss pyogenes ATCC 19615, read-out: MBC)?
A: 32 µg/mL (≈ 69.6 µM)

Q: What about the MIC ([1]; Streptococcus pyogenes, ATCC19615, Streptococcuss pyogenes ATCC 19615, read-out: MIC) of the same compound?
A: 32 µg/mL (≈ 69.6 µM)

Q: What about the MBC (S. aureus 66/1 (MRSA); read-out: MBC) of the same compound?
A: > 64 µg/mL

Q: What about the MIC (S. aureus 66/1 (MRSA); read-out: MIC) of the same compound?
A: 32 µg/mL (≈ 69.6 µM)

Q: And the “antibacterial activity (in words)” value ([2]; E. faecalis ATCC 29212)?
A: exhibited antimicrobial activity

Q: What about the MBC ([2]; Enterococcus faecalis, ATCC29212, Enterococcuss faecalis ATCC 29212, read-out: MBC) of the same compound?
A: > 64 µg/mL

Q: And the MIC ([2]; Enterococcus faecalis, ATCC29212, Enterococcuss faecalis ATCC 29212, read-out: MIC)?
A: 32 µg/mL (≈ 69.6 µM)

Q: And the MBC (E. faecalis B3/101 (VRE); read-out: MBC)?
A: > 64 µg/mL

Q: What about the MIC (E. faecalis B3/101 (VRE); read-out: MIC) of the same compound?
A: > 64 µg/mL

Q: What about the MBC ([3]; read-out: MBC) of the same compound?
A: > 64 µg/mL

Q: What about the MIC ([3]; read-out: MIC) of the same compound?
A: > 64 µg/mL

Q: And the MBC ([4]; ATCC29213, read-out: MBC)?
A: > 64 µg/mL

Q: And the MIC ([4]; ATCC29213, read-out: MIC)?
A: 32 µg/mL (≈ 69.6 µM)

Q: What about the MBC ([5]; read-out: MBC) of the same compound?
A: > 64 µg/mL

Q: And the MIC ([5]; read-out: MIC)?
A: > 64 µg/mL

Q: What about the MBC ([6]; read-out: MBC) of the same compound?
A: > 64 µg/mL

Q: And the MIC ([6]; read-out: MIC)?
A: > 64 µg/mL

Q: And the MBC ([7]; read-out: MBC)?
A: > 64 µg/mL

Q: And the MIC ([7]; read-out: MIC)?
A: > 64 µg/mL

Q: What about the MBC ([8]; read-out: MBC) of the same compound?
A: > 64 µg/mL

Q: What about the MIC ([8]; read-out: MIC) of the same compound?
A: > 64 µg/mL

Q: And the MBC ([9]; read-out: MBC)?
A: > 64 µg/mL

Q: And the MIC ([9]; read-out: MIC)?
A: > 64 µg/mL

Q: And the MBC ([10]; ATCC29473, read-out: MBC)?
A: > 64 µg/mL

Q: What about the MIC ([10]; ATCC29473, read-out: MIC) of the same compound?
A: > 64 µg/mL

Q: What about the “antibacterial activity (in words)” value (C. jejuni 4433) of the same compound?
A: showed antimicrobial activity

Q: What about the MBC (C. jejuni 4433; [11]) of the same compound?
A: > 64 µg/mL

Q: And the MIC (C. jejuni 4433; [12])?
A: > 64 µg/mL

Q: And the “antibacterial activity (in words)” value (C. jejuni 4432)?
A: showed antimicrobial activity

Q: What about the MBC (C. jejuni 4432; [11]) of the same compound?
A: > 64 µg/mL

Q: What about the MIC (C. jejuni 4432; [12]) of the same compound?
A: 64 µg/mL (≈ 139 µM)

Q: And the “antibacterial activity (in words)” value (C. jejuni 4448)?
A: showed antimicrobial activity

Q: And the MBC (C. jejuni 4448; [11])?
A: > 64 µg/mL

Q: What about the MIC (C. jejuni 4448; [12]) of the same compound?
A: > 64 µg/mL

Q: And the MBC (C. jejuni P5/4; read-out: MBC)?
A: > 64 µg/mL

Q: And the MIC (C. jejuni P5/4; read-out: MIC)?
A: > 64 µg/mL
